This note sets out measurements from patent US10638756B2, “Molecules having pesticidal utility, and intermediates, compositions, and processes, related thereto” (Dow AgroSciences LLC, priority 2017, dated 2020).

Assay [1] relates to Beet Armyworm (Spodoptera exigua). Put plainly: Bioassay on Beet Armyworm (BAW), 128-well diet tray assay. It is filed as in vivo. Conditions: Spodoptera exigua, 168 h; 50 μg/cm^2 on artificial diet, second instar larvae, five to seven days; read-out: BAW % Control (or Mortality) rating.
Assay [2] relates to Cabbage Looper (Trichoplusia ni). Put plainly: Bioassay on Cabbage Looper (CL), 128-well diet tray assay. It is filed as in vivo. Conditions: 168 h, 50 μg/cm^2 on artificial diet, second instar larvae, five to seven days, read-out: CL % Control (or Mortality) rating. Put shortly:
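Activity is mean percent mortality over eight wells of second-instar larvae exposed to diet treated at 50 μg/cm^2 for 5–7 days at 25° C.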

Turning to `CN(NC(=O)c1ccc(/C(F)=C/C(c2ccc(Br)c(Cl)c2)C(F)(F)F)cc1C(F)(F)F)c1ncccn1` (stereo not drawn) [F125, (Z)-4-(3-(4-Bromo-3-chlorophenyl)-1,4,4,4-tetrafluorobut-1-en-1-yl)-N′-methyl-N′-(pyrimidin-2-yl)-2-(trifluoromethyl)benzohydrazide], the mortality at 50 µg/cm2 in assay [1] and in assay [2] was 50 to 100% throughout.
For `O=C(NNc1c(Cl)cccc1Cl)c1ccc(/C(F)=C/C(c2cc(Cl)c(Cl)c(Cl)c2)C(F)(F)F)cc1C(F)(F)F` (stereo not drawn) [F129, (Z)—N′-(2,6-dichlorophenyl)-4-(1,4,4,4-tetrafluoro-3-(3,4,5-trichlorophenyl)but-1-en-1-yl)-2-(trifluoromethyl)benzohydrazide], the mortality at 50 µg/cm2 in assay [1] and in assay [2] was 50 to 100% in each case.
On to `O=C(NNc1c(Cl)c(Cl)nc(Cl)c1Cl)c1ccc(/C(F)=C/C(c2cc(Cl)c(Cl)c(Cl)c2)C(F)(F)F)cc1C(F)(F)F` (stereo not drawn) [F131, (Z)—N′-(Perchloropyridin-4-yl)-4-(1,4,4,4-tetrafluoro-3-(3,4,5-trichlorophenyl)but-1-en-1-yl)-2-(trifluoromethyl)benzohydrazide], for which the mortality at 50 µg/cm2 in assay [1] and in assay [2] was 0% throughout.
Take `O=C(NNc1ncccc1[N+](=O)[O-])c1ccc(/C(F)=C/C(c2cc(Cl)c(Cl)c(Cl)c2)C(F)(F)F)cc1C(F)(F)F` (stereo not drawn) [F132, (Z)—N′-(3-Nitropyridin-2-yl)-4-(1,4,4,4-tetrafluoro-3-(3,4,5-trichlorophenyl)but-1-en-1-yl)-2-(trifluoromethyl)benzohydrazide]: the mortality at 50 µg/cm2 in assay [1] and in assay [2] was 50 to 100% each time.
For the compound `O=C(NNC1CCS(=O)(=O)C1)c1ccc(/C(F)=C/C(c2cc(Cl)c(Cl)c(Cl)c2)C(F)(F)F)cc1C(F)(F)F` (stereo not drawn) [F135, (Z)—N′-(1,1-Dioxidotetrahydrothiophen-3-yl)-4-(1,4,4,4-tetrafluoro-3-(3,4,5-trichlorophenyl)but-1-en-1-yl)-2-(trifluoromethyl)benzohydrazide], the mortality at 50 µg/cm2 in assay [1] and in assay [2] was 50 to 100% in each case.
In the case of `O=C(NNc1ccc(Cl)nc1)c1ccc(/C(F)=C/C(c2cc(Cl)c(Cl)c(Cl)c2)C(F)(F)F)cc1C(F)(F)F` (stereo not drawn) [F136, (Z)—N′-(6-Chloropyridin-3-yl)-4-(1,4,4,4-tetrafluoro-3-(3,4,5-trichlorophenyl)but-1-en-1-yl)-2-(trifluoromethyl)benzohydrazide], the mortality at 50 µg/cm2 in assay [1] and in assay [2] was 50 to 100% in each case.
With `O=C(NNC1CCCCC1)c1ccc(/C(F)=C/C(c2cc(Cl)c(Cl)c(Cl)c2)C(F)(F)F)cc1C(F)(F)F` (stereo not drawn) [F137, (Z)—N′-Cyclohexyl-4-(1,4,4,4-tetrafluoro-3-(3,4,5-trichlorophenyl)but-1-en-1-yl)-2-(trifluoromethyl)benzohydrazide], the mortality at 50 µg/cm2 in assay [1] and in assay [2] was 50 to 100% in each case.
As to `O=C(NNC1CCC1)c1ccc(/C(F)=C/C(c2cc(Cl)c(Cl)c(Cl)c2)C(F)(F)F)cc1C(F)(F)F` (stereo not drawn) [F138, (Z)—N′-Cyclobutyl-4-(1,4,4,4-tetrafluoro-3-(3,4,5-trichlorophenyl)but-1-en-1-yl)-2-(trifluoromethyl)benzohydrazide], the mortality at 50 µg/cm2 in assay [1] and in assay [2] was 50 to 100% throughout.
As to `CC(C)(C)CNNC(=O)c1ccc(/C(F)=C/C(c2cc(Cl)c(Cl)c(Cl)c2)C(F)(F)F)cc1C(F)(F)F` (stereo not drawn) [F140, (Z)—N′-Neopentyl-4-(1,4,4,4-tetrafluoro-3-(3,4,5-trichlorophenyl)but-1-en-1-yl)-2-(trifluoromethyl)benzohydrazide], the mortality at 50 µg/cm2 in assay [1] and in assay [2] was 50 to 100% each time.
Take `O=C(NNc1cccc(C(F)(F)F)n1)c1ccc(/C(F)=C/C(c2cc(Cl)c(Cl)c(Cl)c2)C(F)(F)F)cc1C(F)(F)F` (stereo not drawn) [F141, (Z)-4-(1,4,4,4-Tetrafluoro-3-(3,4,5-trichlorophenyl)but-1-en-1-yl)-2-(trifluoromethyl)-N′-(6-(trifluoromethyl)pyridin-2-yl)benzohydrazide]: the mortality at 50 µg/cm2 in assay [1] and in assay [2] was 50 to 100% throughout.
As for `N#CCCNNC(=O)c1ccc(/C(F)=C/C(c2cc(Cl)c(Cl)c(Cl)c2)C(F)(F)F)cc1C(F)(F)F` (stereo not drawn) [F142, (Z)—N′-(2-Cyanoethyl)-4-(1,4,4,4-tetrafluoro-3-(3,4,5-trichlorophenyl)but-1-en-1-yl)-2-(trifluoromethyl)benzohydrazide], the mortality at 50 µg/cm2 in assay [1] and in assay [2] was 50 to 100% each time.
For `CN(C)CCNNC(=O)c1ccc(/C(F)=C/C(c2cc(Cl)c(Cl)c(Cl)c2)C(F)(F)F)cc1C(F)(F)F` (stereo not drawn) [F143, (Z)—N′-(2-(Dimethylamino)ethyl)-4-(1,4,4,4-tetrafluoro-3-(3,4,5-trichlorophenyl)but-1-en-1-yl)-2-(trifluoromethyl)benzohydrazide], the mortality at 50 µg/cm2 fell in the range of 50 to 100% in assay [1] and 0 to 50% in assay [2].
Consider `CN(NC(=O)c1ccc(/C(F)=C/C(c2cc(Cl)c(Cl)c(Cl)c2)C(F)(F)F)cc1C(F)(F)F)C1CCCC1` (stereo not drawn) [F144, (Z)—N′-Cyclopentyl-N′-methyl-4-(1,4,4,4-tetrafluoro-3-(3,4,5-trichlorophenyl)but-1-en-1-yl)-2-(trifluoromethyl)benzohydrazide], for which the mortality at 50 µg/cm2 in assay [1] and in assay [2] was 50 to 100% in each case.
`CC(C)CCNNC(=O)c1ccc(/C(F)=C/C(c2cc(Cl)c(Cl)c(Cl)c2)C(F)(F)F)cc1C(F)(F)F` (stereo not drawn) [F145, (Z)—N′-Isopentyl-4-(1,4,4,4-tetrafluoro-3-(3,4,5-trichlorophenyl)but-1-en-1-yl)-2-(trifluoromethyl)benzohydrazide]: the mortality at 50 µg/cm2 in assay [1] and in assay [2] was 50 to 100% throughout.
Turning to `O=C(NNC1CCC(F)(F)CC1)c1ccc(/C(F)=C/C(c2cc(Cl)c(Cl)c(Cl)c2)C(F)(F)F)cc1C(F)(F)F` (stereo not drawn) [F146, (Z)—N′-(4,4-Difluorocyclohexyl)-4-(1,4,4,4-tetrafluoro-3-(3,4,5-trichlorophenyl)but-1-en-1-yl)-2-(trifluoromethyl)benzohydrazide], the mortality at 50 µg/cm2 in assay [1] and in assay [2] was 50 to 100% each time.
Take `NN(CC(=O)NCC(F)(F)F)C(=O)c1ccc(/C(F)=C/C(c2cc(Cl)c(Cl)c(Cl)c2)C(F)(F)F)cc1C(F)(F)F` (stereo not drawn) [F149, (Z)-2-(1-(4-(1,4,4,4-tetrafluoro-3-(3,4,5-trichlorophenyl)but-1-en-1-yl)-2-(trifluoromethyl)benzoyl)hydrazinyl)-N-(2,2,2-trifluoroethyl)acetamide]: the mortality at 50 µg/cm2 in assay [1] and in assay [2] was 50 to 100% throughout.
On to `C#CCN(NC(=O)c1ccc(/C(F)=C/C(c2cc(Cl)c(Cl)c(Cl)c2)C(F)(F)F)cc1C(F)(F)F)c1ncccn1` (stereo not drawn) [F150, (Z)—N′-(Prop-2-yn-1-yl)-N′-(pyrimidin-2-yl)-4-(1,4,4,4-tetrafluoro-3-(3,4,5-trichlorophenyl)but-1-en-1-yl)-2-(trifluoromethyl)benzohydrazide], for which the mortality at 50 µg/cm2 in assay [1] and in assay [2] was 50 to 100% throughout.
Consider `CN(NC(=O)c1ccc(/C(F)=C/C(c2cc(Cl)cc(Cl)c2)C(F)(F)F)cc1C(F)(F)F)c1ncccn1` (stereo not drawn) [F151, (Z)-4-(3-(3,5-Dichlorophenyl)-1,4,4,4-tetrafluorobut-1-en-1-yl)-N′-methyl-N′-(pyrimidin-2-yl)-2-(trifluoromethyl)benzohydrazide], for which the mortality at 50 µg/cm2 in assay [1] and in assay [2] was 50 to 100% in each case.
Regarding `CN(CCCC(F)(F)F)NC(=O)c1ccc(/C(F)=C/C(c2cc(Cl)c(Cl)c(Cl)c2)C(F)(F)F)cc1C(F)(F)F` (stereo not drawn) [F155, (Z)—N′-Methyl-4-(1,4,4,4-tetrafluoro-3-(3,4,5-trichlorophenyl)but-1-en-1-yl)-N′-(4,4,4-trifluorobutyl)-2-(trifluoromethyl)benzohydrazide], the mortality at 50 µg/cm2 in assay [1] and in assay [2] was 50 to 100% each time.
For the compound `Nc1ccccc1NNC(=O)c1ccc(/C(F)=C/C(c2cc(Cl)c(Cl)c(Cl)c2)C(F)(F)F)cc1C(F)(F)F` (stereo not drawn) [F156, (Z)—N′-(2-aminophenyl)-4-(1,4,4,4-tetrafluoro-3-(3,4,5-trichlorophenyl)but-1-en-1-yl)-2-(trifluoromethyl)benzohydrazide], the mortality at 50 µg/cm2 in assay [1] and in assay [2] was 50 to 100% in each case.
With `CC(C)CNNC(=O)c1ccc(/C(F)=C/C(c2cc(Cl)c(Cl)c(Cl)c2)C(F)(F)F)cc1C(F)(F)F` (stereo not drawn) [F157, (Z)—N′-Isobutyl-4-(1,4,4,4-tetrafluoro-3-(3,4,5-trichlorophenyl)but-1-en-1-yl)-2-(trifluoromethyl)benzohydrazide], the mortality at 50 µg/cm2 in assay [1] and in assay [2] was 50 to 100% each time.
In the case of `CN(CC1CC1)NC(=O)c1ccc(/C(F)=C/C(c2cc(Cl)c(Cl)c(Cl)c2)C(F)(F)F)cc1C(F)(F)F` (stereo not drawn) [F159, (Z)—N′-(Cyclopropylmethyl)-N′-methyl-4-(1,4,4,4-tetrafluoro-3-(3,4,5-trichlorophenyl)but-1-en-1-yl)-2-(trifluoromethyl)benzohydrazide], the mortality at 50 µg/cm2 in assay [1] and in assay [2] was 50 to 100% in each case.
As to `CC(C)CCN(C)NC(=O)c1ccc(/C(F)=C/C(c2cc(Cl)c(Cl)c(Cl)c2)C(F)(F)F)cc1C(F)(F)F` (stereo not drawn) [F160, (Z)—N′-Isopentyl-N′-methyl-4-(1,4,4,4-tetrafluoro-3-(3,4,5-trichlorophenyl)but-1-en-1-yl)-2-(trifluoromethyl)benzohydrazide], the mortality at 50 µg/cm2 in assay [1] and in assay [2] was 50 to 100% in each case.
On to `O=C(NNCC1CC1)c1ccc(/C(F)=C/C(c2cc(Cl)c(Cl)c(Cl)c2)C(F)(F)F)cc1C(F)(F)F` (stereo not drawn) [F162, (Z)—N′-(Cyclopropylmethyl)-4-(1,4,4,4-tetrafluoro-3-(3,4,5-trichlorophenyl)but-1-en-1-yl)-2-(trifluoromethyl)benzohydrazide], for which the mortality at 50 µg/cm2 in assay [1] and in assay [2] was 50 to 100% throughout.
